# Tests used:
# Format in all cases: cell-based
# [1] = tested on: HeLa cells; assay: Surface azide labeling of HeLa cells with AzNAM, DBCO-FAM fluorescence by flow cytometry; conditions: AzNAM 125 μM for 20 hours, versus cells receiving no azide-modified sugar
# Description: In separate cultures, HeLa cells were added to wells of a 12-well plate at 10,000 cells/well, and cultured for 72 hours under normal conditions. The wells were washed with 1 ml of PBS, and 0.5 ml of DMEM-10% FBS was added. AzNAM was added to a final concentration of 125 μM, with cells receiving no azide-modified sugar as controls. After 20 hours, cells were harvested with CellStripper (250 μl/well), washed with PBS, and subjected to flow analysis.
# [2] = tested on: Jurkat cells; assay: Placement of trastuzumab mimotope on azide-modified cells, flow analysis; conditions: AzNAM 100 μM for 24 hours
# Description: (§1) Jurkat and HeLa cells were cultured for three days in their optimal media (RPMI-10% FBS/DMEM-10% FBS, respectively) in 6-well plates to reach a state of sub-confluency. AzNAM (from 100 mM DMSO stock) was added to designated wells to a […] of 100 μM. Control wells received equal volumes of DMSO only. After 24 hours, cells were harvested (directly for the non-adherent Jurkat cells, and with Cell Stripper reagent for HeLa cells), and washed in PBS. […] Cells treated with the DBCO-Jmim peptide were then subjected to standard staining with Trastuzumab (BioVision), followed by secondary staining with FITC-conjugated goat-anti-human kappa chain antibody. During the staining procedure, the control washed DBCO-FAM treated cells were kept on ice. Finally, all cells were subjected to flow cytometric analysis.
# [3] = tested on: HeLa cells; assay: as above; conditions: AzNAM 100 μM for 24 hours
# Description: as §1
# [4] = tested on: HeLa cells; assay: Surface azide labeling of HeLa cells with AzNAM, DBCO-FAM fluorescence read in plate reader; conditions: AzNAM 10-125 μM for 20 hours, then 10 μM DBCO-FAM for 1 hour
# Description: Initially, cells were cultured in a suitable culture vessel such that their level of confluency at the time of addition of the azide-modified sugar, AzNAM, was not more than 80%.
# In particular, HeLa cells were plated in 6-well plates (2.5×10^4 cells/well) and incubated for 48 hours in DMEM-10% FBS medium in a standard 5% CO2 atmosphere. Medium from each well was removed, and each well was washed with 2 ml of phosphate buffered saline (PBS), and fresh DMEM-FBS (1 ml) added. Subsequently, varying amounts of AzNAM (solubilized in DMSO) were added to the wells in small (10 μl) volumes to produce the desired final concentrations in the range 10-125 μM. After an additional 20 hours incubation, the medium in each well was removed, and the wells were washed with 2 ml of PBS, followed by addition of 1 ml of PBS. Then, a fluorescent azide reactive molecule, DBCO-FAM (Broadpharm), was directly added to each well to produce a final concentration of 10 μM.
# Plates with added DBCO-FAM were protected from bright light and incubated for 1 hour at room temperature. Supernatants in each well were removed, and each well was washed twice with 2 ml of PBS. […] After pelleting and washing in PBS, cells were resuspended in 150 μl of PBS and counted. Defined numbers in 50 μl volumes in a 96-well Blackwell plate (Corning) were assayed for fluorescence in a fluorescent plate reader (Tecan).
# [5] = then 10 μM DBCO-Jmim for 1 hour, trastuzumab plus FITC goat-anti-human kappa, versus DMSO controls
substance,measurement,setting,value
azido-N-acetylmannosamine [AzNAM],flow analysis peak shift (DBCO-FAM fluorescence),[1],marked and well-demarcated peak shifts
same,fluorescence after metabolic labeling and DBCO-FAM treatment (flow analysis),[2]; then 10 μM DBCO-FAM for 1 hour,positive fluorescence
same,staining with trastuzumab (flow analysis),[2]; [5],strong staining with trastuzumab
same,fluorescence after metabolic labeling and DBCO-FAM treatment (flow analysis),[3]; then 10 μM DBCO-FAM for 1 hour,positive fluorescence
same,staining with trastuzumab (flow analysis),[3]; [5],strong staining with trastuzumab
same,cell-associated fluorescence (96-well plate format),[4],cell-associated fluorescence increased as a function of the levels of AzNAM

# From patent US20240016933A1, “Methods of Anchoring or Reconstituting Active Molecules on Metabolically Labeled Cells” (The General Hospital Corporation, priority 2020, published 2024)
